This experiment has as its target T1, human OT receptor (Homo sapiens, UniProt P30559).
T1 construct: expressed in transfected cells; host or cells: mammalian cell line, e.g. Chinese hamster ovary (CHO), stably or transiently transfected; co-transfected with a firefly luciferase reporter (e.g. NFAT promoter)
T1 sequence (P30559 1-389): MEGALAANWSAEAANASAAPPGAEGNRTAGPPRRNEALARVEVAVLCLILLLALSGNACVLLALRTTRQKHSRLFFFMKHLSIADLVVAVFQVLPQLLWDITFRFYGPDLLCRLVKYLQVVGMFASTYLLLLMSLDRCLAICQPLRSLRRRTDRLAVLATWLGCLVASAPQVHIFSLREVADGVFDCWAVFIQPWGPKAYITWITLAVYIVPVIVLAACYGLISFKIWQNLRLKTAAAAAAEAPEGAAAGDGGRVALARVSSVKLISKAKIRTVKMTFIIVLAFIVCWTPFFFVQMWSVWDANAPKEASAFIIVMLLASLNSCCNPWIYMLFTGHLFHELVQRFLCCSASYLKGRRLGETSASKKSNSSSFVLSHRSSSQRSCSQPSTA
Nature of the experiment: human OT receptor agonist assay, luciferase reporter (NFAT promoter) in transfected CHO cells. The format is cell-based. As to conditions: for EC50: concentration at which the response is 50% of the maximum, 4-parameter logistic fit, luciferase reporter in cells expressing the human OT receptor; for OT (efficacy): maximal efficacy compared to the maximal stimulation observed with OT. The procedure:
In addition, the cells are transfected with a gene for firefly luciferase under the control of a suitable promoter, e.g. NFAT promoter. Contact of the OT receptor by an agonist leads to stimulation of luciferase synthesis, the extent of which is measured using commercially available reagents. Concentrations at which the response is 50% of the maximum are calculated by fitting of data to 4-parameter logistic curves. Maximal efficacy is calculated compared to the maximal stimulation observed with OT.

As usually defined, the EC50 is the concentration needed to bring the measured effect to its halfway point. A lower EC50 goes with higher potency in that assay. With `Cn1ncc2c1Nc1ccccc1N(C(=O)c1ccc(CNC(=O)N3CCN(Cc4cc(O)cc(O)c4)CC3)cc1Cl)C2` [Example 3, 4-(3,5-Dihydroxy-benzyl)-piperazine-1-carboxylic acid 3-chloro-4-(3-methyl-4,10-dihydro-3H-2,3,4,9-tetraaza-benzo[f]azulene-9-carbonyl)-benzylamide], a half-maximal effect (EC50) was put at 58 nM and the “OT (efficacy)” value amounted to 41%.
The like results for `Cc1cc(C(=O)N2Cc3cnn(C)c3Nc3ccccc32)cc(C)c1CNC(=O)N1CCN(Cc2cc(O)cc(O)c2)CC1` [Example 2, 4-(3,5-Dihydroxy-benzyl)-piperazine-1-carboxylic acid 2,6-dimethyl-4-(3-methyl-4,10-dihydro-3H-2,3,4,9-tetraaza-benzo[f]azulene-9-carbonyl)-benzylamide] were, in that order, 24 nM and 16%.
For `Cc1cc(C(=O)N2Cc3cnn(C)c3Nc3ccccc32)ccc1CNC(=O)N1CCN(Cc2cccc(C(=O)N(C)C)c2)CC1` [Example 5, 4-(3-Dimethylcarbamoyl-benzyl)-piperazine-1-carboxylic acid 2-methyl-4-(3-methyl-4,10-dihydro-3H-2,3,4,9-tetraaza-benzo[f]azulene-9-carbonyl)-benzylamide] the same measures were 33 nM and 13%.
The like results for `Cc1cc(C(=O)N2Cc3cnn(C)c3Nc3ccccc32)ccc1CNC(=O)N1CCN(Cc2cccc(C(=S)N(C)C)c2)CC1` [Example 6, 4-(3-Dimethylthiocarbamoyl-benzyl)-piperazine-1-carboxylic acid 2-methyl-4-(3-methyl-4,10-dihydro-3H-2,3,4,9-tetraaza-benzo[f]azulene-9-carbonyl)-benzylamide] were, in that order, 190 nM and 21%.
Regarding `Cc1cc(C(=O)N2Cc3cnn(C)c3Nc3ccccc32)ccc1CNC(=O)N1CCN(Cc2cc(O)cc(O)c2)CC1` [Example 1, 4-(3,5-Dihydroxy-benzyl)-piperazine-1-carboxylic acid 2-methyl-4-(3-methyl-4,10-dihydro-3H-2,3,4,9-tetraaza-benzo[f]azulene-9-carbonyl)-benzylamide], the “OT (efficacy)” value was determined as 76%.
For `Cn1ncc2c1Nc1ccccc1N(C(=O)c1ccc(CNC(=O)N3CCN(Cc4cc(O)cc(O)c4)CC3)c(F)c1)C2` [Example 4, 4-(3,5-Dihydroxy-benzyl)-piperazine-1-carboxylic acid 2-fluoro-4-(3-methyl-4,10-dihydro-3H-2,3,4,9-tetraaza-benzo[f]azulene-9-carbonyl)-benzylamide], the EC50 was determined as 74 nM and the “OT (efficacy)” value came out at 51%.

The values are drawn from US20070197608A1, “Piperazines as oxytocin agonists” (Ferring B.V., priority 2003, published 2007).
